Measured values taken from publication PMC2728345 (Toxicology and applied pharmacology, 2009).
Positions count from the first letter of the chain named. Entries after “also recorded” stand apart in the source; their conditions may differ.

Columns and labels:
[1] = target: carboxylesterase HCE2 (Homo sapiens, UniProt O00748); test: Hydrolysis of pyrethroids by recombinant HCE2; type: in vitro ADME; conditions: for preference for hydrolysis by HCE2 over HCE1: recombinant HCE2 vs HCE1 lysates, Tris-HCl pH 7.4
[2] = tested on: CYP3A4; test: CYP3A4 expression in human primary hepatocytes; conditions: 10 µM, 24 h; for induction of CYP3A4 mRNA: four donors
[3] = target: T1, rat PXR (Rattus norvegicus, UniProt Q9R1A7); test: Activation of rat PXR, cotransfection with CYP3A4-DP-Luc in HepG2; conditions: 24 h
T1 sequence (Q9R1A7 1-431): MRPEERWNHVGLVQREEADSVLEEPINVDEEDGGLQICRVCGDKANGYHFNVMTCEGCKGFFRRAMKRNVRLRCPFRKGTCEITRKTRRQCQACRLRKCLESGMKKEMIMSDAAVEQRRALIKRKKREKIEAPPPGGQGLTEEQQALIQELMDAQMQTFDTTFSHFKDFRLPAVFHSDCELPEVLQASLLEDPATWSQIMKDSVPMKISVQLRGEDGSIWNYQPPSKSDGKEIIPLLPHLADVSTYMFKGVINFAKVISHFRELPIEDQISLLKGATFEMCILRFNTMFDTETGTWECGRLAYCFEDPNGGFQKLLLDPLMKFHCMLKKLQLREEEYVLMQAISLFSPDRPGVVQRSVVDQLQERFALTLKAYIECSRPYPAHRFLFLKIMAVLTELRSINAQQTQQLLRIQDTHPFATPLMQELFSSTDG

[4] = type: in vitro ADME, human; conditions: ten individual microsomal samples, 100 µM bioallethrin, 30 min
[5] = target: T2, carboxylesterase HCE1 (Homo sapiens, UniProt P23141); test: Hydrolysis of pyrethroids by recombinant HCE1; type: in vitro ADME; conditions: for preference for hydrolysis by HCE1 over HCE2 (words): recombinant HCE1 vs HCE2 lysates, Tris-HCl pH 7.4
T2 sequence (P23141 18-567): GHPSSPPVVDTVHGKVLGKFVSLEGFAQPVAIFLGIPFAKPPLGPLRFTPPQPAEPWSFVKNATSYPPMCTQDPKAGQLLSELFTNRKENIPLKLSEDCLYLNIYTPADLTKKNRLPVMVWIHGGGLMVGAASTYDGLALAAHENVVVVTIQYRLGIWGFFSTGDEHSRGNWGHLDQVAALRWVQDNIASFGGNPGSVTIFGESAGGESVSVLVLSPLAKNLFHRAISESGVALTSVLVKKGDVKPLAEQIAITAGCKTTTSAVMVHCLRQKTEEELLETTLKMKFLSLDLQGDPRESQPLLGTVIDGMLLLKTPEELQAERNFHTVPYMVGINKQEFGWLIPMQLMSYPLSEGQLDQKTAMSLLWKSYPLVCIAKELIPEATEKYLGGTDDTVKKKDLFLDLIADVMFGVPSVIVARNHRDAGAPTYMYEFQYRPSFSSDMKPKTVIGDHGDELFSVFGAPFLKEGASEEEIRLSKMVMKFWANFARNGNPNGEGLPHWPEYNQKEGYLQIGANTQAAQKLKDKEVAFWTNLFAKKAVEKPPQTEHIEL

[6] = tested on: CYP3A4; test: Metabolism of pyrethroids by recombinant CYP3A4; conditions: Supersomes 5 pmol P450, pyrethroid 50 µM, NRS, 37°C
[7] = target: T3, human PXR (Homo sapiens, UniProt O75469); test: Activation of human PXR in stable line hPXR-HRE; conditions: 10 µM, 24 h, ratio over DMSO
T3 sequence (O75469 1-434): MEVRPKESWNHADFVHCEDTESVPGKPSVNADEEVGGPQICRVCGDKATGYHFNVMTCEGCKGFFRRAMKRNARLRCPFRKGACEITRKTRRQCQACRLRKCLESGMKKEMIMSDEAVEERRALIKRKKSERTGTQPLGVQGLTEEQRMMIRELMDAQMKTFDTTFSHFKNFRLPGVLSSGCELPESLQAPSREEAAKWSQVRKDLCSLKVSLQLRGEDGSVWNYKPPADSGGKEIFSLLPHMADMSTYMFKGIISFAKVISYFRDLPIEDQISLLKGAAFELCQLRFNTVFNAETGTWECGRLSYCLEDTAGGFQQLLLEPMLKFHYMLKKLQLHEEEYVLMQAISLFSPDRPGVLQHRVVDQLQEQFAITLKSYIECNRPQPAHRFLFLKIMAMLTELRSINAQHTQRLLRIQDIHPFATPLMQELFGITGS

[8] = for hydrolysis by pooled human liver microsomes (rate group / extent, in words): 50 µg protein, pyrethroid 200 µM mixed with equal volume, Tris-HCl pH 7.4, 37°C
[9] = tested on: rats or mice; conditions: in vivo, po; cited from earlier work
[10] = tested on: CYP3A4; test: CYP3A4 mRNA in cell lines HepG2, Hop92 and LS180; type: cell-based, human; conditions: 24 h
[11] = target: T4, human PXR variant S208F (Homo sapiens, UniProt O75469, S208F); conditions: HepG2 cotransfection, 10 µM, 24 h; words: compared with wild-type PXR
T4 sequence (O75469 1-434 S208F): T3 sequence (O75469 1-434) with S208F

[12] = target: T5, human PXR variant L412I (Homo sapiens, UniProt O75469, L412I); conditions: HepG2 cotransfection, 10 µM, 24 h
T5 sequence (O75469 1-434 L412I): T3 sequence (O75469 1-434) with L412I

[13] = target: T3, human PXR; test: Activation of human PXR in hPXR-HRE cells transfected with HCE1, HCE2 or vector

Chain of carboxylesterase HCE2 (O00748 27-559): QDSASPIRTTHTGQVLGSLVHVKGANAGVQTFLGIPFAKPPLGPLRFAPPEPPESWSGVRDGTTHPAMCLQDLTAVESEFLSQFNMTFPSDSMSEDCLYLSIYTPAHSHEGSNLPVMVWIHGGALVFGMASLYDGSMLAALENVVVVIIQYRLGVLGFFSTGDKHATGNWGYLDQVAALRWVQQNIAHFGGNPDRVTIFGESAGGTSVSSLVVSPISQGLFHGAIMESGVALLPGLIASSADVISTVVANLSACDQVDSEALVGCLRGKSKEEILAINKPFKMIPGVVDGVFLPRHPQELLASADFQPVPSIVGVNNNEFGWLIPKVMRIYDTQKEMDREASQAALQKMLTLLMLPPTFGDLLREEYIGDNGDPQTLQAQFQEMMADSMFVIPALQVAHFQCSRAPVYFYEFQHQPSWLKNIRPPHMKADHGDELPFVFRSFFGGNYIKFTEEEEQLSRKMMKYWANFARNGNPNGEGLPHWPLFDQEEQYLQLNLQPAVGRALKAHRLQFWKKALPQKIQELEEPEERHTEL

Row | Structure (SMILES) | preference for hydrolysis by HCE2 over HCE1 [1] | induction of CYP3A4 mRNA [2] | activation of rat PXR [3] | preference for hydrolysis by HCE1 over HCE2 (words) [5] | extent of metabolism by CYP3A4 [6] | activation of human PXR [7] | hydrolysis by pooled human liver microsomes (rate group / extent, in words) [8] | other results
1 | Cc1c(COC(=O)[C@@H]2[C@H](/C=C(\Cl)C(F)(F)F)C2(C)C)cccc1-c1ccccc1 (racemic) [Bifenthrin] | HCE2 preferably hydrolyzed | ≥ 2.5 fold | efficaciously activated rat PXR |  |  |  |  | 
2 | C=CCC1=C(C)C(OC(=O)[C@@H]2[C@@H](C=C(C)C)C2(C)C)CC1=O (stereo partly drawn) [Bioallethrin] |  | relatively weaker inducers; also recorded: least induction | 2.0 fold | HCE1 preferably hydrolyzed | greatest extent | activated PXR with less potency | rapidly hydrolyzed | variation of overall hydrolysis among individual samples [4]: ~ 2 fold; hydrolysis rate relative to bifenthrin ([8]; pooled human liver microsomes): 8 times
3 | CC(C)=C[C@@H]1[C@@H](C(=O)OCc2coc(Cc3ccccc3)c2)C1(C)C [Bioresmethrin] |  | relatively weaker inducers; also recorded: least induction |  | hydrolyzed overwhelmingly by HCE1 |  | 1.5 fold | highest extent | hydrolysis by HCE1 relative to esfenvalerate ([5]; recombinant HCE1): 7 times; preference for hydrolysis by HCE1 over HCE2 (words) ([5]; listed as bioresmethrin): HCE1 preferably hydrolyzed; LD50 [9]: 1244 mg/kg
4 | CC(C)[C@H](C(=O)O[C@H](C#N)c1cccc(Oc2ccccc2)c1)c1ccc(Cl)cc1 [Esfenvalerate] |  | ≥ 2.5 fold |  | HCE1 preferably hydrolyzed |  |  | low rate | concentration dependence of CYP3A4 mRNA induction ([10]; HepG2 cells, 0–10 µM): concentration-dependent manner; lowest concentration with significant induction of CYP3A4 mRNA ([10]; HepG2 cells, 0–10 µM): 0.5 µM; induction of CYP3A4 mRNA in HepG2 ([10]; HepG2 cells, 1 µM): significant induction; induction of CYP3A4 mRNA in Hop92 ([10]; Hop92 cells, 1 µM): significant induction; induction of CYP3A4 mRNA in LS180 ([10]; LS180 cells, 1 µM): significant induction; LD50 [9]: 325 mg/kg; activation of PXR variant S208F [11]: no differences; activation of PXR variant L412I compared with wild-type PXR [12]: less extent than the wild-type PXR
5 | CC1(C)[C@H](C=C(Cl)Cl)[C@H]1C(=O)OCc1cccc(Oc2ccccc2)c1 [Per-1, trans-permethrin] | comparably hydrolyzed by both enzymes |  |  |  |  |  | high rate | hydrolysis by HCE2 faster than by HCE1 ([1]; recombinant enzymes): 15%
6 | CC1(C)[C@H](C(=O)OCc2cccc(Oc3ccccc3)c2)[C@@H]1C=C(Cl)Cl [Per-2, cis-permethrin] |  |  |  |  |  |  | low rate | hydrolysis by HCE2 relative to HCE1 ([1]; recombinant enzymes): 7 times
7 | CC1(C)C(C=C(Cl)Cl)C1C(=O)OCc1cccc(Oc2ccccc2)c1 (stereo not drawn) [Permethrin] | HCE2 preferably hydrolyzed |  | efficaciously activated rat PXR |  |  | relatively weak activators of human PXR |  | 
8 | CC(C)=CC1C(C(=O)OCN2C(=O)C3=C(CCCC3)C2=O)C1(C)C (stereo not drawn) [Tetramethrin] | HCE2 preferably hydrolyzed; also recorded: slightly more active than HCE1 | relatively weaker inducers; also recorded: minimal induction; also recorded: least induction; also recorded: weakest CYP3A4 inducer |  |  | greatest extent |  |  | CYP3A4 protein (Western blotting) [2]: slight increase; lowest concentration causing significant activation of PXR, HCE1 ([13]; HCE1 co-transfected cells, 0.5-10 µM): 5 µM; lowest concentration causing significant activation of PXR, HCE2 ([13]; HCE2-cotransfected cells, 0.5-10 µM): > 10 µM; lowest concentration causing significant activation of PXR, vector ([13]; cells cotransfected by the vector, 0.5-10 µM): 1 µM; effect of carboxylesterase cotransfection on PXR activation ([13]; hPXR-HRE cells transfected with HCE1 or HCE2 vs vector, 10 µM): markedly decreased; decrease in PXR activation, HCE1 versus HCE2 cotransfection ([13]; hPXR-HRE cells, 10 µM): decreased more PXR activation than HCE1; hydrolysis rate relative to tau-fluvalinate ([8]; pooled human liver microsomes): 9 times
9 | CC(C)[C@@H](Nc1ccc(C(F)(F)F)cc1Cl)C(=O)OC(C#N)c1cccc(Oc2ccccc2)c1 (stereo partly drawn) [tau-Fluvalinate] | HCE2 preferably hydrolyzed |  |  |  | least extent | 3.5 fold | low rate | 
